Data from the C3SDB collision cross section collection.

Settings: instrument: TW, calibrated with polyalanine and drug standards

Row | SMILES | collision cross section (N2) ([M+H]+) | other results
1 | COc1cc2oc3cc(OC)c(OC)c(CC=C(C)C)c3c(=O)c2c(O)c1CC=C(C)C [1-HYDROXY-3,6,7-TRIMETHOXY-2,8-DIPRENYLXANTHONE] | 209.7 Å² | –
2 | COc1cc(O)c(C(=O)/C=C/c2ccc(O)c(OC)c2)c(OC)c1 [2',4-DIHYDROXY-3,4',6'-TRIMETHOXYCHALCONE] | 177.5 Å² | –
3 | O=c1[nH]c2cc(Cl)c(Cl)cc2[nH]c1=O [2,3-DIHYDROXY-6,7-DICHLOROQUINOXALINE] | 143 Å² | –
4 | COC1=CC(=O)C(C(=O)c2ccccc2)=CC1=O [2-BENZOYL-5-METHOXYBENZOQUINONE] | 145.4 Å² | –
5 | CCOc1cccc(C(=O)c2ccc(O)c(O)c2O)c1 [3,4-DIDESMETHYL-5-DESHYDROXY-3'-ETHOXYSCLEROIN] | 160.3 Å² | –
6 | O=c1c(O)c(-c2ccccc2)oc2cc(O)ccc12 [3,7-DIHYDROXYFLAVONE] | 152.1 Å² | –
7 | CC(=O)c1cc2ccccc2oc1=O [3-ACETYLCOUMARIN] | 131.6 Å² | –
8 | COc1ccc2c(c1)OC[C@@H](Cc1ccc(OC)c(OC)c1)[C@@H]2O [3-DESHYDROXYSAPPANOL TRIMETHYL ETHER] | – | collision cross section (N2) ([M+H-H2O]+): 172.3 Å²
9 | COc1ccc(-c2oc3ccccc3c(=O)c2O)cc1OC [3-HYDROXY-3',4'-DIMETHOXYFLAVONE] | 164.1 Å² | –
10 | CC1(C)CC2C1CC[C@]1(C)CCC3C(C(=O)O)CC(=O)O[C@@]32C1 (some centres undefined) [3-HYDROXY-4-(SUCCIN-2-YL)-CARYOLANE delta-LACTONE] | 174.9 Å² | –
11 | O=c1c(O)c(-c2ccccc2)oc2ccccc12 [3-HYDROXYFLAVONE] | 146.3 Å² | –
12 | CC(C)Cn1c(=O)n(C)c(=O)c2[nH]cnc21 [3-ISOBUTYL-1-METHYLXANTHINE (IBMX)] | 147.8 Å² | –
13 | Cc1cc(O)c(C)c(O)c1C(=O)O [3-METHYLORSELLINIC ACID] | – | collision cross section (N2) ([M+H-H2O]+): 127.5 Å²
14 | Cn1c(=O)[nH]c(=O)c2[nH]cnc21 [3-METHYLXANTHINE] | 127.9 Å² | –
15 | C[C@]12CC[C@@H](O)C[C@H]1CCc1ccccc12 [3alpha-HYDROXY-4,4-BISNOR-8,11,13-PODOCARPATRIENE] | 140.4 Å² | –
16 | Cc1cc(=O)oc2c(O)c(O)ccc12 [4-METHYLDAPHNETIN] | 134.8 Å² | –
17 | COc1cc(O)c(C(C)=O)c(O)c1 [4-O-METHYLPHLORACETOPHENONE] | 130.5 Å² | –
18 | O=c1c(-c2ccccc2)coc2cc(O)cc(O)c12 [5,7-DIHYDROXYISOFLAVONE] | 152.3 Å² | –
19 | O=C(O)c1cc2cc(F)ccc2[nH]1 [5-FLUOROINDOLE-2-CARBOXYLIC ACID] | 145.3 Å² | –
20 | COc1ccc2oc(-c3ccccc3OC)cc(=O)c2c1 [6,2'-DIMETHOXYFLAVONE] | 161.4 Å² | –
21 | COc1cccc(-c2cc(=O)c3cc(OC)ccc3o2)c1 [6,3'-DIMETHOXYFLAVONE] | 162.1 Å² | –
22 | O=c1cc(-c2ccccc2O)oc2cc(O)ccc12 [7,2'-DIHYDROXYFLAVONE] | 152.4 Å² | –
23 | O=c1cc(-c2ccc(O)cc2)oc2cc(O)ccc12 [7,4'-DIHYDROXYFLAVONE] | 153.2 Å² | –

Row | SMILES | collision cross section (N2) ([M+H]+) | other results
24 | O=c1cc(-c2ccccc2)oc2c(O)c(O)ccc12 [7,8-DIHYDROXYFLAVONE] | 152 Å² | –
25 | CC(=O)O[C@H]1C[C@@H](OC(C)=O)C(C)(C)C2CC(=O)[C@]3(C)C(CC[C@@]4(C)[C@H](c5ccoc5)OC(=O)[C@H]5O[C@]543)[C@]21C (some centres undefined) [7-DEACETOXY-7-OXOKHIVORIN] | 217.7 Å² | –
26 | CC(C)CCC[C@@H](C)[C@H]1CC[C@H]2[C@@H]3C(=O)C=C4C[C@@H](O)CC[C@]4(C)[C@H]3CC[C@]12C [7-OXOCHOLESTEROL] | 208.3 Å² | –
27 | CC1(C)C(=O)[C@@H]2C[C@@]3(O)C4=CC(=O)O[C@@H](c5ccoc5)[C@]4(C)CCC3C(C)(C2=O)[C@H]1CC(=O)O (some centres undefined) [8-HYDROXYCARAPINIC ACID] | 202.9 Å² | –
28 | Cc1ccc2c(c1)CC[C@H]1CC(=O)CC[C@]21C [13-METHYL-4,4-BISNOR-8,11,13-PODOCARPATRIEN-3-ONE] | 148.1 Å² | –
29 | COc1ccc(-c2cc(=O)c3c(O)cc(O)cc3o2)cc1 [ACACETIN] | 160.3 Å² | –
30 | COc1ccc2c(c1)c(CC(=O)OCC(=O)O)c(C)n2C(=O)c1ccc(Cl)cc1 [ACEMETACIN] | 191 Å² | –
31 | CC(=O)Nc1ccc(OC(=O)c2ccccc2O)cc1 [ACETAMINOSALOL] | 168.2 Å² | –
32 | CC(=O)Nc1cc([As](=O)(O)O)ccc1O [ACETARSOL] | 151.5 Å² | –
33 | CC(=O)Nc1nnc(S(N)(=O)=O)s1 [ACETAZOLAMIDE] | 140.7 Å² | –
34 | CC(=O)N[C@@H]1[C@@H](O)[C@H](O)[C@@H](CO)O[C@H]1O [ACETYLGLUCOSAMINE] | – | collision cross section (N2) ([M+Na]+): 153.5 Å²
35 | CC(=O)NCCCCCC(=O)O [ACEXAMIC ACID] | – | collision cross section (N2) ([M+Na]+): 141.4 Å²
36 | O=c1ccc2cc(O[C@@H]3O[C@H](CO)[C@@H](O)[C@H](O)[C@H]3O)c(O)cc2o1 [AESCULIN] | 174 Å² | –
37 | C=C1CC[C@H]2C(C)(C)CCC[C@]2(C)[C@H]1CC/C(C)=C/Cn1c[n+](C)c2ncnc(N)c21 [AGELASINE D] | – | collision cross section (N2) ([M]+): 212.2 Å²
38 | CC[C@H]1[C@@H]2C[C@H]3[C@@H]4N(C)c5ccccc5[C@]45C[C@@H]([C@H]2[C@H]5O)N3[C@@H]1O [AJMALINE] | 172.9 Å² | –
39 | CCCSc1ccc2nc(NC(=O)OC)[nH]c2c1 [ALBENDAZOLE] | 162 Å² | –
40 | C=CCS(=O)C[C@H](N)C(=O)O (some centres undefined) [ALLIIN] | – | collision cross section (N2) ([M+Na]+): 134.5 Å²
41 | O=c1ncnc2[nH][nH]cc1-2 [ALLOPURINOL] | 123 Å² | –
42 | C=CCc1ccccc1OCC(O)CNC(C)C (centres undefined) [ALPRENOLOL] | 158.6 Å² | –
43 | CN(C)c1nc(N(C)C)nc(N(C)C)n1 [ALTRETAMINE] | 145.6 Å² | –
44 | CC(=O)OCC(=O)[C@@]12OC3(CCCC3)O[C@@H]1C[C@H]1[C@@H]3CCC4=CC(=O)C=C[C@]4(C)[C@@]3(F)[C@@H](O)C[C@@]12C [AMCINONIDE] | 214.9 Å² | –
45 | CN1C2CCC1CC(OC(c1ccccc1)c1ccccc1N)C2 (centres undefined) [AMINOBENZTROPINE] | 180.6 Å² | –
46 | CCC1(c2ccc(N)cc2)CCC(=O)NC1=O (centres undefined) [AMINOGLUTETHIMIDE] | 164.8 Å² | –

Row | SMILES | collision cross section (N2) ([M+H]+) | other results
47 | Nc1ccc(C(=O)NCC(=O)O)cc1 [AMINOHIPPURIC ACID] | 155.3 Å² | –
48 | Nc1nccs1 [AMINOTHIAZOLE] | 117.2 Å² | –
49 | Clc1ccc2c(c1)C(N1CCNCC1)=Nc1ccccc1O2 [AMOXAPINE] | 171.2 Å² | –
50 | CC1(C)S[C@@H]2[C@H](NC(=O)[C@H](N)c3ccc(O)cc3)C(=O)N2[C@H]1C(=O)O [AMOXICILLIN] | 187.4 Å² | –
51 | COc1cc(NS(C)(=O)=O)ccc1Nc1c2ccccc2nc2ccccc12 [AMSACRINE] | 193.1 Å² | –
52 | COc1ccc([C@@H](C)C(=O)c2ccc(O)cc2O)cc1 [ANGOLENSIN (R)] | 162 Å² | –
53 | COc1ccc(C(=O)N2CCCC2=O)cc1 [ANIRACETAM] | 146.6 Å² | –
54 | O=C1c2c(O)cccc2Cc2cccc(O)c21 [ANTHRALIN] | 142.6 Å² | –
55 | COc1cc(O)cc(OC)c1OC [ANTIAROL] | 133.5 Å² | –
56 | Cc1cc(=O)n(-c2ccccc2)n1C [ANTIPYRINE] | 137.8 Å² | –
57 | COc1cc2c(cc1OC)-c1c(oc3cc(O)cc(O)c3c1=O)CO2 [APOTOXICAROL] | 173.8 Å² | –
58 | OC[C@H]1O[C@@H](Oc2ccc(O)cc2)[C@H](O)[C@@H](O)[C@@H]1O [ARBUTIN] | – | collision cross section (N2) ([M+Na]+): 164.4 Å²
59 | COc1cc(OC)c(OC)cc1C=O [ASARYLALDEHYDE] | 138.3 Å² | –
60 | C[C@H]1[C@H](C)CC[C@]2(C(=O)O)CC[C@]3(C)C(=CC[C@@H]4[C@@]5(C)C[C@@H](O)[C@H](O)[C@@](C)(CO)[C@@H]5CC[C@]43C)[C@H]12 [ASIATIC ACID] | – | collision cross section (N2) ([M+Na]+): 233.5 Å²
61 | CC(C)NCC(O)COc1ccc(CC(N)=O)cc1 (centres undefined) [ATENOLOL] | 159 Å² | –
62 | O=C(O)C1=CC(=C(c2ccc(O)c(C(=O)O)c2)c2ccc(O)c(C(=O)O)c2)C=CC1=O [AURIN TRICARBOXYLIC ACID] | 197.6 Å² | –
63 | CC[C@H](C)[C@H]1O[C@]2(C=C[C@@H]1C)C[C@@H]1C[C@@H](C/C=C(\C)[C@@H](O[C@H]3C[C@H](OC)[C@@H](O[C@H]4C[C@H](OC)[C@@H](O)[C@H](C)O4)[C@H](C)O3)[C@@H](C)/C=C/C=C3\CO[C@@H]4[C@H](O)C(C)=C[C@@H](C(=O)O1)[C@]34O)O2 [Abamectin B1A] | – | collision cross section (N2) ([M+Na]+): 290.5 Å²
64 | C/C(=C(\CCOP(=O)(O)O)SC(=O)c1ccccc1)N(C=O)Cc1cnc(C)nc1N [BENFOTIAMINE] | 192.7 Å² | –
65 | CCCCCCCCCCCCCC[N+](C)(C)Cc1ccccc1 [BENZALKONIUM CHLORIDE C14] | – | collision cross section (N2) ([M]+): 205.7 Å²
66 | O=C(Nc1ccc(C(=O)O)c(O)c1)c1ccccc1 [BENZOYLPAS] | 156.3 Å² | –
67 | COc1c(O)cc2c(c1O)[C@@H]1O[C@H](CO)[C@@H](O)[C@H](O)[C@H]1OC2=O [BERGENIN] | 168.3 Å² | –
68 | CCCCC(=O)O[C@]1(C(=O)CO)[C@@H](C)C[C@H]2[C@@H]3CCC4=CC(=O)C=C[C@]4(C)[C@@]3(F)[C@@H](O)C[C@@]21C [BETAMETHASONE VALERATE] | 214 Å² | –
69 | C[C@H]1C[C@H]2[C@@H]3CCC4=CC(=O)C=C[C@]4(C)[C@@]3(F)[C@@H](O)C[C@]2(C)[C@@]1(O)C(=O)CO [BETAMETHASONE] | 186.7 Å² | –
